Bounds are passed on as bounds.

The values below come from patent publication US20250064789A1, “KETOAMIDE DERIVATIVES AND PHARMACEUTICAL USES THEREOF” (priority 2022, published 2025).

For the first test, the target named is recombinant SARS-CoV-2 M^pro (Severe acute respiratory syndrome coronavirus 2 (2019-nCoV) (SARS-CoV-2), UniProt P0DTD1). Kind of test: Inhibition of SARS-CoV-2 M^pro enzyme activity (fluorescent substrate assay). The format is biochemical. The settings on record: inhibition of SARS-CoV-2 M^pro enzyme activity; values given in μM; read-out: IC50.
By IC50 is commonly meant the concentration needed to halve the response being measured. `O=C(NCc1ncco1)C(=O)[C@@H](Cc1ccccc1)NC(=O)c1ccccc1` [Compound 457]: the IC50 was 51.5 ± 0.94 µM.
In the case of `O=C(CCc1ccccc1)N[C@H](Cc1ccccc1)C(=O)C(=O)NCc1nccs1` [Compound 475], the IC50 amounted to 1.22 ± 0.1 µM.
Consider `O=C(NCc1nccs1)C(=O)[C@@H](Cc1cc(F)c(F)cc1F)NC(=O)c1ccccc1` [Compound 467], for which the IC50 turned out to be 3.37 ± 0.18 µM.
In the case of `O=C(NCc1ccon1)C(=O)[C@@H](Cc1ccccc1)NC(=O)c1ccccc1` [Compound 459], the 50% inhibitory concentration (IC50) amounted to 54.74 ± 0.35 µM.
As for `O=C(NCc1nccs1)C(=O)[C@@H](Cc1ccccc1)NC(=O)c1cnn(Cc2cc(F)c(F)cc2F)c1` [Compound 490], the concentration for half-maximal inhibition (IC50) is 5.21 ± 0.72 µM.
In the case of `COC[C@@H](NC(=O)C1CCCC(F)(F)C1)C(=O)N[C@H](Cc1ccccc1)C(=O)C(=O)NCc1nnc(C)o1` (stereo partly drawn) [Compound 559], the IC50 is above 2.5 µM.
For the compound `COc1cccnc1CNC(=O)C(=O)[C@@H](Cc1ccccc1)NC(=O)[C@@H](C)OCc1ccccc1` [Compound 39], the IC50 is above 5 µM.
The same measure, in the same setting: for `C[C@@H](NC(=O)C1CCC(F)(F)CC1)C(=O)N[C@H](Cc1ccccc1)C(=O)C(=O)NCc1ncco1` [Compound 352] the value was 2.5 ± 0.29 µM; for `C[C@@H](OCc1ccccc1)C(=O)N[C@H](Cc1ccccc1)C(=O)C(=O)NC(c1ccccc1)c1ccccn1` (stereo partly drawn) [Compound 32], above 5 µM; for `COC[C@@H](NC(=O)C1CCCC(F)(F)C1)C(=O)N[C@H](Cc1ccccc1)C(=O)C(=O)NCc1ncno1` (stereo partly drawn) [Compound 563], above 2.5 µM.

Staying with this test, now noted: inhibition of SARS-CoV-2 M^pro enzyme activity; values in nM; read-out: IC50.
Consider `C[C@@H](NC(=O)C1CCC(F)(F)CC1)C(=O)N[C@H](Cc1ccccc1F)C(=O)C(=O)NCc1ccccn1` [Compound 361], for which the IC50 came to 0.0272 ± 0.0028 µM.
Turning to `O=C(CNC(=O)[C@@H]1C[C@@H]2[C@H](C1)C2(F)F)N[C@H](Cc1ccccc1)C(=O)C(=O)NCc1cscn1` [Compound 424], the 50% inhibitory concentration (IC50) came out at 0.0207 ± 0.0002 µM.
On the same count and under the same terms, as for `C[C@@H](NC(=O)NC1CCC(F)(F)CC1)C(=O)N[C@H](Cc1ccccc1)C(=O)C(=O)NCc1ccccn1` [Compound 295], the figure is 0.0122 µM.
On the same count and under the same terms, for `C[C@@H](NC(=O)C1CCC(F)(F)CC1)C(=O)N[C@H](Cc1cccc(F)c1)C(=O)C(=O)NCc1ccccn1` [Compound 360] the value was 0.031 ± 0.0039 µM; for `O=C(NCc1ccccn1)C(=O)[C@@H](Cc1ccccc1)NC(=O)[C@@H]1[C@H]2CCC[C@H]2CN1C(=O)COc1ccc(Cl)c(Cl)c1` [Compound 257], 0.0718 ± 0.0001 µM.
`C[C@@H](NC(=O)C1(O)CCCCC1)C(=O)N[C@H](Cc1ccccc1)C(=O)C(=O)NCc1ccccn1` [Compound 107]: the IC50 turned out to be 0.052 ± 0.0002 µM.
With `COC[C@@H](NC(=O)C1CCC(F)(F)CC1)C(=O)N[C@H](Cc1ccccc1)C(=O)C(=O)NCc1nccs1` [Compound 393], the IC50 came to 0.0882 ± 0.0056 µM.
For `C[C@@H](NC(=O)CC1CCOCC1)C(=O)N[C@H](Cc1ccccc1)C(=O)C(=O)NCc1ccccn1` [Compound 135], the IC50 was 0.0573 ± 0.0053 µM.
On to `O=C(CNC(=O)[C@@H]1C[C@@H]2[C@H](C1)C2(F)F)N[C@H](Cc1ccccc1)C(=O)C(=O)NCc1nccs1` [Compound 389], for which the IC50 worked out at 0.11 ± 0.0016 µM.
As to `CC[C@@H](C(=O)N[C@H](C)C(=O)N[C@H](Cc1ccccc1)C(=O)C(=O)NCc1ccccn1)N1CCCC1=O` [Compound 123], the IC50 came to 0.163 ± 0.002 µM.
On to `C[C@@H](NC(=O)c1cnn(-c2ccccc2)c1)C(=O)N[C@H](Cc1ccccc1)C(=O)C(=O)NCc1ccccn1` [Compound 132], for which the IC50 is 0.158 ± 0.0262 µM.
Turning to `O=C(NCc1nccs1)C(=O)[C@@H](Cc1ccccc1)NC(=O)[C@@H](CO)NC(=O)C1CCCC(F)(F)C1` (stereo partly drawn) [Compound 570], the IC50 stood at 0.0406 ± 0.002 µM.
Turning to `O=C(Cc1cc(OC(F)(F)F)ccc1F)NC1(C(=O)N[C@H](Cc2ccccc2)C(=O)C(=O)NCc2ccccn2)CC1` [Compound 164], the IC50 was 0.0132 ± 0.0005 µM.
Consider `O=C(COc1ccc(F)cc1)N[C@H](Cc1ccccc1)C(=O)C(=O)NCc1ccccn1` [Compound 54], for which the IC50 came out at 0.2984 ± 0.0029 µM.
For `O=C(Cc1noc(-c2ccc(F)c(Cl)c2)n1)N[C@H](Cc1ccccc1)C(=O)C(=O)NCc1nccs1` [Compound 526], the IC50 was determined as 0.0284 ± 0.0015 µM.
On the same count and under the same terms, for `C[C@@H](OCc1ccccc1F)C(=O)N[C@H](Cc1ccccc1)C(=O)C(=O)NCc1ccccn1` [Compound 6] the value was 0.0483 ± 0.0012 µM; for `O=C(NCc1ccccn1)C(=O)[C@@H](Cc1ccccc1)NC(=O)C1(NC(=O)C2CC3CCC2C3)CCC1` (stereo partly drawn) [Compound 214], 0.0174 ± 0.0005 µM.
In the case of `O=C(CCC(F)(F)F)NC1(C(=O)N[C@H](Cc2ccccc2)C(=O)C(=O)NCc2ccccn2)CCC1` [Compound 213], the 50% inhibitory concentration (IC50) came to 0.0414 ± 0.0008 µM.
Take `O=C(CNC(=O)c1cnccn1)N[C@H](Cc1ccccc1)C(=O)C(=O)NCc1ccccn1` [Compound 154]: the IC50 turned out to be 0.193 ± 0.002 µM.
For `O=C(NCc1ccccn1)C(=O)[C@@H](Cc1ccccc1)NC(=O)[C@@H]1C[C@H]2C[C@H]2N1C(=O)C1CCC(F)(F)CC1` [Compound 268], the IC50 was determined as 0.296 ± 0.0038 µM.
For `O=C(NCc1ccccn1)C(=O)[C@@H](Cc1ccccc1)NC(=O)C1(NC(=O)c2cc(OC(F)(F)F)ccc2F)CC1` [Compound 165], the IC50 was found to be 0.0203 ± 0.0002 µM.
The same measure, in the same setting: as for `CC(C)[C@@H]1CC[C@@H](C)C[C@H]1OCC(=O)NC1(C(=O)N[C@H](Cc2ccccc2)C(=O)C(=O)NCc2ccccn2)CCC1` [Compound 206], the figure is 0.018 ± 0.0005 µM.
Consider `C[C@@H](NC(=O)COc1ccccc1F)C(=O)N[C@H](Cc1ccccc1)C(=O)C(=O)NCc1ccccn1` [Compound 70], for which the half-maximal inhibitory concentration (IC50) is 0.0229 ± 0.0003 µM.
Regarding `O=C(NCc1ccccn1)C(=O)[C@@H](Cc1ccccc1)NC(=O)C1(NC(=O)[C@@H]2C[C@@H]3[C@H](C2)C3(F)F)CC1` [Compound 161], the IC50 is 0.0153 ± 0.0016 µM.
For `O=C(NCc1nccs1)C(=O)[C@@H](Cc1ccccc1)NC(=O)C1(NC(=O)C2CCC(F)(F)CC2)CCCC1` [Compound 541], the half-maximal inhibitory concentration (IC50) is 0.0518 ± 0.0014 µM.
Take `COc1ccccc1OCC(=O)N[C@H](C)C(=O)N[C@H](Cc1ccccc1)C(=O)C(=O)NCc1ccccn1` [Compound 89]: the IC50 worked out at 0.0409 ± 0.0012 µM.
Same read-out and setting: for `O=C(CNC(=O)C1CCC(F)(F)CC1)N[C@H](Cc1ccccc1)C(=O)C(=O)NCc1nccs1` [Compound 388] the value was 0.0629 ± 0.0081 µM.
In the case of `COC[C@@H](NC(=O)C1CCCC(F)(F)C1)C(=O)N[C@H](Cc1ccccc1)C(=O)C(=O)NCc1cocn1` (stereo partly drawn) [Compound 560], the IC50 stood at 0.0221 ± 0.0007 µM.
As for `C[C@@H](NC(=O)C1C[C@@H]2[C@H](C1)C2(F)F)C(=O)N[C@H](Cc1ccco1)C(=O)C(=O)NCc1ccccn1` (stereo partly drawn) [Compound 366], the IC50 stood at 0.0646 ± 0.0007 µM.
In the case of `CC(C)(OCc1ccc(F)cc1)C(=O)N[C@H](Cc1ccccc1)C(=O)C(=O)NCc1ccccn1` [Compound 22], the 50% inhibitory concentration (IC50) is 0.0186 ± 0.0017 µM.
`C[C@@H](NC(=O)COc1cccc(F)c1)C(=O)N[C@H](Cc1ccccc1)C(=O)C(=O)NCc1ccccn1` [Compound 93]: the IC50 amounted to 0.0288 ± 0.001 µM.
As for `O=C(Cn1cc(-c2ccc(F)c(C(F)(F)F)c2)cn1)N[C@H](Cc1ccccc1)C(=O)C(=O)NCc1nccs1` [Compound 498], the IC50 stood at 0.103 ± 0.0053 µM.
On to `C[C@@H](NC(=O)c1cc(F)cc(Cl)c1)C(=O)N[C@H](Cc1ccccc1)C(=O)C(=O)NCc1ccc(Cl)cn1` [Compound 60], for which the IC50 is 0.0249 ± 0.0001 µM.
Regarding `Cc1cc(-c2cc(Cl)cc(C#N)c2)nn1C1(C(=O)N[C@H](Cc2ccccc2)C(=O)C(=O)NCc2nccs2)CC1` [Compound 517], the IC50 was determined as 0.0562 ± 0.0032 µM.
For the compound `O=C(NCc1ccccn1)C(=O)[C@@H](Cc1ccccc1)NC(=O)C1(NC(=O)C2(F)CCCCC2)CC1` [Compound 168], the IC50 was found to be 0.0107 ± 0.0004 µM.
`O=C(NCc1ccccn1)C(=O)[C@@H](Cc1ccccc1)NC(=O)[C@H]1Cc2ccccc2CN1C(=O)NCC1CC(F)(F)C1` [Compound 310]: the IC50 amounted to 0.0124 µM.
`O=C(NCc1ccccn1)C(=O)[C@@H](Cc1ccccc1)NC(=O)C1(NC(=O)C2CCC(F)(F)CC2)CCOC1` (stereo partly drawn) [Compound 228]: the IC50 was found to be 0.0181 ± 0.0011 µM.
Same read-out and setting: for `O=C(N[C@H](C1CC1)C(F)(F)F)NC1(C(=O)N[C@H](Cc2ccccc2)C(=O)C(=O)NCc2ccccn2)CCC1` [Compound 307] the value was 0.026 ± 0.0021 µM; for `O=C(NCc1ccccn1)C(=O)[C@@H](Cc1ccccc1)NC(=O)C1(NC(=O)C23CC4(F)CC(F)(CC(F)(C4)C2)C3)CCC1` [Compound 203], 0.0196 ± 0.0006 µM.
On the same count and under the same terms, as for `C[C@@H](NC(=O)Cc1ccc(F)cc1)C(=O)N[C@H](Cc1ccccc1)C(=O)C(=O)NCc1ccccn1` [Compound 75], the figure is 0.0193 ± 0.0007 µM; as for `C[C@@H](NC(=O)C1C2CCCC2CN1C(=O)OC(C)(C)C)C(=O)N[C@H](Cc1ccccc1)C(=O)C(=O)NCc1ccccn1` (stereo partly drawn) [Compound 118], 0.0402 ± 0.0034 µM; as for `O=C(CNC(=O)C1CCC(F)(F)CC1)N[C@H](Cc1ccccc1Cl)C(=O)C(=O)NCc1ccccn1` [Compound 449], 0.0453 ± 0.0012 µM.
For `C[C@@H](NC(=O)C(C)(C)c1ccccc1)C(=O)N[C@H](Cc1ccccc1)C(=O)C(=O)NCc1ccccn1` [Compound 73], the IC50 is 0.0258 ± 0.0005 µM.
Turning to `C[C@@H](NC(=O)Cc1ccc(C(F)(F)F)cc1)C(=O)N[C@H](Cc1ccccc1)C(=O)C(=O)NCc1ccccn1` [Compound 78], the IC50 amounted to 0.0532 ± 0.0005 µM.
On the same count and under the same terms, as for `O=C(NCc1ccccn1)C(=O)[C@@H](Cc1ccccc1)NC(=O)[C@@H]1[C@H]2CCC[C@H]2CN1C(=O)c1cnccn1` [Compound 260], the figure is 0.742 ± 0.0063 µM; as for `O=C(NCc1ccccn1)C(=O)[C@@H](Cc1ccccc1)NC(=O)[C@H]1C[C@H]2C[C@H]2N1C(=O)C1CCC(F)(F)CC1` [Compound 269], 0.0196 ± 0.0004 µM; as for “(R)-3-((R)-2-(benzyloxy)propionamido)-N-((5-chloropyridin-2-yl)methyl)-4-(4-fluorophenyl)-2-oxobutyramide [Compound 52]”, 0.0442 ± 0.0034 µM.
For the compound `C[C@@H](NC(=O)C(C)(C)Sc1ccc(Cl)cc1Cl)C(=O)N[C@H](Cc1ccccc1)C(=O)C(=O)NCc1ccccn1` [Compound 95], the IC50 worked out at 0.0082 ± 0.0011 µM.
Consider `CC[C@@H](NC(=O)C1CCC(F)(F)CC1)C(=O)N[C@H](Cc1ccccc1)C(=O)C(=O)NCc1nccs1` [Compound 535], for which the IC50 came out at 0.0357 ± 0.00017 µM.
The same measure, in the same setting: as for `O=C(NCc1nccs1)C(=O)[C@@H](Cc1ccccc1)NC(=O)[C@H]1COCCN1C(=O)CC1CC1(F)F` (stereo partly drawn) [Compound 413], the figure is 0.0291 ± 0.0025 µM.
